Test results reported in publication PMC4412285, “Broadening the repertoire of melanoma-associated T-cell epitopes” (Cancer Immunology, Immunotherapy : CII, 2015).

Key:
HLA-A11 = target: T1, HLA-A11 (Homo sapiens, UniProt P04439, A114D/F33Y/S129P); experiment: MHC ELISA after UV light-mediated peptide exchange; type: binding; parameters: key: 1 = confirm ed ligand; conditions: MHC rescue after UV-induced peptide exchange, absorbance normalized to control ligand HLA-A11/EBV EBNA4AVF, selected if above 0.90 of control in either of two experiments, duplicates
T1 construct: made in house; host or cells: Escherichia coli

[1] = tested on: melanoma cell lines FM3 (HLA-A3+gp100+) and FM28 (HLA-A3-gp100+); experiment: 51Chromium-release cytotoxicity assay, melanoma cell lines; type: cell-based, human; conditions: 51Cr release, 4 h
Description: To measure the ^51Chromium-release, 5 × 10^5 target cells in 100 µl R10 were labeled with ^51Cr (100 µCi; Amersham, Arlington Heights, IL) and pulsed with peptide at 37 °C for 1 h when indicated. The washed target cells were incubated with effector cells at various effector/target ratios in 96-well plates at 37 °C for 4 h before 100 µl of medium was aspirated and the ^51Cr release counted in a gamma counter (Wallac Wizard 1470 Automatic Gamma Counter, Perkin Elmer). The maximum ^51Cr release was determined in separate wells by adding 100 µl of 10 % Triton X-100, and the spontaneous release was determined by adding 100 µl of R10 to target cells only. […] The target cells were melanoma cell lines FM3 (HLA-A3^+gp100^+) and FM28 (HLA-A3^−gp100^+).

T2-A3 cells = experiment: 51Chromium-release cytotoxicity assay, peptide-pulsed T2-A3 cells; type: cell-based, human; conditions: 51Cr release, no lysis of T2A3 cells pulsed with an irrelevant peptide (Supplementary Figure 5)

## LIYRRRLMK
HLA-A11
  Confirmed ligand: 1
[1]; not affected by T2-A3 cells pulsed with an irrelevant peptide (Fig. 3e)
  Cold target inhibition of FM3 killing by T2-A3 cells pulsed with the peptide: specifically inhibited
[1]; HLA-A3-restricted specific T cells, 37 °C (Fig. 3d)
  T cell-mediated killing of melanoma cell lines FM3 and FM28: selective killing of the HLA-A3-positive melanoma cell line FM3
T2-A3 cells; listed as gp100_614-622
  Killing of T2-A3 cells pulsed with the peptide by T cells with matching specificity: specifically killed
T2-A3 cells; listed as gp100614-22
  Killing of T2-A3 cells pulsed with the peptide by T cells with matching specificity: Specific lysis
